The results in this text go back to ChEMBL document CHEMBL1201862, “PubChem BioAssay data set” (2004).

Among the test systems are A549; CAKI-1; COLO 205; DU-145; HOP-62; LOX IMVI; MCF7; MDA-MB-231; Malme-3M; NCI-H522; OVCAR-3; OVCAR-4; OVCAR-5; SNB-19; SNB-75; T47D; U-251; UACC-62; PC-3.
Assay in all cases: inhibition of tumour cell growth, NCI panel, 48 h

Molecules are shown by their SMILES.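 These data come from cells grown in 96-well plates and exposed to compound for 48 hours at five concentrations. GI50 is the concentration that inhibits growth by half.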 Calls of active or inactive are those of the source. Rule as the data show it: active = GI50 up to about 1.1 µM and inactive = higher. Some results are limits rather than exact numbers.

As for `Cc1cc(C)cc(Nc2nnc3n2S(=O)(=O)c2cc(C#N)c(Cl)cc2S3)c1`, the GI50 in the assay on A549 is 16.2 µM (inactive); in the assay with CAKI-1 it was 3.24 µM (inactive); in the assay on COLO 205, 10.9 µM (inactive); in the assay on DU-145, 3.14 µM (inactive); in the assay with HOP-62, 2.77 µM (inactive); in the assay on LOX IMVI it was 2.89 µM (inactive). In addition, the GI50 in the assay on MCF7 is 1.87 µM (inactive); with MDA-MB-231, 3.13 µM (inactive); with Malme-3M, 1.13 µM (inactive); with NCI-H522, 1.87 µM (inactive); with OVCAR-3, 1.57 µM (inactive); in the assay on OVCAR-4, 7.98 µM (inactive). Moreover, the GI50 with OVCAR-5 was 2.83 µM (inactive); in the assay on SNB-19 it was 6.78 µM (inactive); with SNB-75 it was 2.32 µM (inactive); in the assay with T47D, 3.26 µM (inactive); in the assay on U-251 it was 1.96 µM (inactive); in the assay with UACC-62, 3.97 µM (inactive).

Turning to `COC(=O)C1(N2CCOCC2)CCC([C@@H](c2ccccc2)C(C)[N+](=O)[O-])C1` (stereo not given in full), the GI50 in the assay with A549 is > 100 µM (inactive); with COLO 205, 64.6 µM (inactive); with DU-145, 19.7 µM (inactive); in the assay on HOP-62, > 100 µM (inactive); with LOX IMVI it was 39 µM (inactive); with MCF7 it was 21.9 µM (inactive). Further, the GI50 in the assay with MDA-MB-231 was > 100 µM (inactive); in the assay on Malme-3M, > 100 µM (inactive); with OVCAR-3 it was 18.7 µM (inactive); in the assay with OVCAR-4, 55.5 µM (inactive); in the assay with OVCAR-5, > 100 µM (inactive); in the assay on PC-3, > 100 µM (inactive). The GI50 with SNB-19 was > 100 µM (inactive); in the assay on SNB-75, 34.5 µM (inactive); in the assay with T47D it was 2.03 µM (inactive); in the assay on U-251, > 100 µM (inactive); with UACC-62, > 100 µM (inactive).

Regarding `O=C1CC(CC(O)C(O)CO)CC(=O)N1` (stereo not given), the GI50 with A549, in the assay on CAKI-1, with DU-145, with HOP-62, in the assay on LOX IMVI and with MCF7 was > 100 µM (inactive) in each case. The GI50 in the assay on MDA-MB-231, with Malme-3M, with NCI-H522, with OVCAR-3, with PC-3 and in the assay with SNB-19 was > 100 µM (inactive) each time. For the same compound, the GI50 with T47D and in the assay with U-251 was > 100 µM (inactive) throughout.

Regarding `c1ccc(P(CCP(c2ccccn2)c2ccccn2)c2ccccc2)cc1`, the GI50 in the assay with A549 was 0.0736 µM (active); in the assay on CAKI-1, > 90.8 µM (inactive); in the assay with COLO 205, 0.341 µM (active); in the assay on DU-145 it was 1.19 µM (inactive); in the assay on HOP-62, 0.0268 µM (active); in the assay with LOX IMVI it was 0.038 µM (active). Besides, the GI50 in the assay on MCF7 is 0.0261 µM (active); with Malme-3M, 25.2 µM (inactive); in the assay on NCI-H522, 0.0314 µM (active); with OVCAR-3 it was < 0.0172 µM (active); with OVCAR-4, 50.7 µM (inactive); with OVCAR-5, > 75.9 µM (inactive). Moreover, the GI50 in the assay with PC-3 is 0.0281 µM (active); with SNB-19, 0.498 µM (active); with SNB-75 it was 0.863 µM (active); in the assay with T47D, 0.0435 µM (active); with U-251, 0.0578 µM (active); in the assay with UACC-62, 63.7 µM (inactive).

For `C/C(=N\NS(=O)(=O)c1ccc(C)cc1)c1ccccn1`, the GI50 in the assay on A549 was 53.3 µM (inactive); in the assay with CAKI-1 it was 36 µM (inactive); with COLO 205, 32.7 µM (inactive); in the assay with DU-145 it was > 100 µM (inactive); in the assay on HOP-62, 62.2 µM (inactive); in the assay with LOX IMVI it was 55.6 µM (inactive). For the same compound, the GI50 is 53.8 µM (inactive) in the assay on MCF7; > 100 µM (inactive) in the assay with MDA-MB-231; 60.3 µM (inactive) with Malme-3M; 50.7 µM (inactive) in the assay on OVCAR-3; 68.2 µM (inactive) in the assay on OVCAR-4; > 100 µM (inactive) in the assay on OVCAR-5. For the same compound, the GI50 is 84.3 µM (inactive) with PC-3; 74.8 µM (inactive) in the assay on SNB-19; > 100 µM (inactive) with SNB-75; 76.9 µM (inactive) in the assay with T47D; 88.5 µM (inactive) with U-251; 40.2 µM (inactive) in the assay with UACC-62.

For the compound `C1=C\SS/C=C\SS/1`, the GI50 with A549 is 48.1 µM (inactive); in the assay on CAKI-1 it was > 10 µM (inactive); with COLO 205, 39.3 µM (inactive); with DU-145, > 100 µM (inactive); with HOP-62 it was 54.6 µM (inactive); in the assay on LOX IMVI, 29 µM (inactive). In addition, the GI50 was 15.9 µM (inactive) with MCF7; 6.53 µM (inactive) in the assay with MDA-MB-231; 46.8 µM (inactive) with OVCAR-4; 35.3 µM (inactive) with OVCAR-5; 38.5 µM (inactive) in the assay with PC-3; 32.3 µM (inactive) with SNB-19. In addition, the GI50 in the assay with T47D was 55.1 µM (inactive); in the assay on U-251, 34.8 µM (inactive); with UACC-62, 52.4 µM (inactive).

Turning to `O=C(N=C1N(c2ccccc2)C(=O)C(=O)N1c1ccccc1)c1ccccc1`, the GI50 in the assay on A549 is 5.48 µM (inactive); in the assay on CAKI-1, 13.5 µM (inactive); in the assay on COLO 205, 13.9 µM (inactive); with DU-145, 6.7 µM (inactive); with HOP-62, 11.5 µM (inactive); with LOX IMVI, 3.78 µM (inactive). The GI50 with MDA-MB-231 was 6.9 µM (inactive); with Malme-3M it was 17.4 µM (inactive); in the assay with NCI-H522, 1.66 µM (inactive); in the assay with OVCAR-4, 2.95 µM (inactive); with OVCAR-5, 27.5 µM (inactive); with PC-3, 14.7 µM (inactive). The GI50 was 13.3 µM (inactive) in the assay with SNB-19; 11.3 µM (inactive) with SNB-75; 15.6 µM (inactive) in the assay on T47D; 11.7 µM (inactive) in the assay with U-251; 7.93 µM (inactive) in the assay with UACC-62.

Consider `COC(=O)C1=C(C)NC(C)=C(C(=O)OC)C1c1cccc(N=O)c1`, for which the GI50 in the assay on A549 was 31.8 µM (inactive); with CAKI-1, 10.6 µM (inactive); in the assay on COLO 205, 18.5 µM (inactive); in the assay with DU-145, 15.8 µM (inactive); in the assay on HOP-62 it was 21.1 µM (inactive); with LOX IMVI it was 17.4 µM (inactive). Besides, the GI50 with MCF7 is 18.4 µM (inactive); with MDA-MB-231 it was 14.4 µM (inactive); in the assay on Malme-3M it was 15.4 µM (inactive); with NCI-H522, 3.18 µM (inactive); in the assay with OVCAR-3, 15.7 µM (inactive); in the assay on OVCAR-4, 13.1 µM (inactive). Besides, the GI50 was 18 µM (inactive) with OVCAR-5; 17.8 µM (inactive) in the assay with PC-3; 75.5 µM (inactive) with SNB-19; 11.6 µM (inactive) in the assay on T47D; 17 µM (inactive) in the assay with U-251; 14.3 µM (inactive) in the assay on UACC-62.

In the case of `Cn1c2c(c3ccccc31)CCN1C(=O)C34CCCC3CC21S4` (stereo not given), the GI50 in the assay on A549, in the assay on CAKI-1, in the assay on COLO 205, with DU-145, with HOP-62 and with LOX IMVI was > 100 µM (inactive) throughout. The GI50 in the assay on MCF7, in the assay with MDA-MB-231, in the assay on Malme-3M, in the assay on NCI-H522, with OVCAR-3 and with OVCAR-4 was > 100 µM (inactive) throughout. Moreover, the GI50 was > 100 µM (inactive) in the assay with OVCAR-5; 95.1 µM (inactive) in the assay with PC-3; > 100 µM (inactive) in the assay on SNB-19; 87.1 µM (inactive) with T47D; > 100 µM (inactive) with U-251; 78.7 µM (inactive) with UACC-62.

As to `COc1cc(C2S/C(=C/c3ccccc3)C(=O)N2c2cc(Cl)ccc2Cl)cc(OC)c1OC` (stereo not given), the GI50 in the assay on A549 is 91.8 µM (inactive); in the assay with CAKI-1, 39.2 µM (inactive); with COLO 205, 55.3 µM (inactive); in the assay on DU-145, 35 µM (inactive); in the assay on HOP-62, 46.7 µM (inactive); in the assay with LOX IMVI, 15.8 µM (inactive). Also, the GI50 in the assay on MCF7 was 27 µM (inactive); with MDA-MB-231 it was 40.3 µM (inactive); in the assay with Malme-3M, 32.8 µM (inactive); in the assay with NCI-H522 it was 21.9 µM (inactive); with OVCAR-3 it was 32.3 µM (inactive); with PC-3, 31.6 µM (inactive). Besides, the GI50 in the assay with SNB-19 is 71.9 µM (inactive); in the assay on T47D, 53.7 µM (inactive); in the assay with U-251 it was 35.7 µM (inactive); in the assay on UACC-62, 31.8 µM (inactive).

Regarding `Nc1nc(Cl)cc(NCC2(CO)CC(=O)C2)n1`, the GI50 in the assay on A549, in the assay on CAKI-1, in the assay with COLO 205, in the assay with DU-145, in the assay on HOP-62 and with LOX IMVI was > 100 µM (inactive) each time. For the same compound, the GI50 with MCF7, in the assay on MDA-MB-231, with Malme-3M, in the assay with NCI-H522, in the assay with OVCAR-3 and in the assay with OVCAR-4 was > 100 µM (inactive) in each case. In addition, the GI50 with OVCAR-5 is > 100 µM (inactive); in the assay on PC-3, > 100 µM (inactive); in the assay on SNB-19 it was > 100 µM (inactive); in the assay with T47D, 21.2 µM (inactive); in the assay with U-251, > 100 µM (inactive); with UACC-62, 86.7 µM (inactive).

Consider `CC(=O)OC1c2ccccc2CC2(OC(C)=O)c3ccccc3C12` (stereo not given), for which the GI50 with A549, in the assay on CAKI-1, in the assay with COLO 205, in the assay on DU-145, in the assay on HOP-62 and in the assay with LOX IMVI was > 100 µM (inactive) in each case. Also, the GI50 with MCF7 is 80.4 µM (inactive); in the assay on MDA-MB-231, > 100 µM (inactive); in the assay on Malme-3M it was > 100 µM (inactive); in the assay with OVCAR-3 it was > 100 µM (inactive); in the assay with OVCAR-4 it was > 100 µM (inactive); with OVCAR-5 it was > 100 µM (inactive). Also, the GI50 with PC-3, with SNB-19, in the assay with SNB-75, with T47D, in the assay on U-251 and with UACC-62 was > 100 µM (inactive) each time.
